# Laboratory results: publication PMC11079024, “Identification of a family of species-selective complex I inhibitors as potential anthelmintics” (Nature Communications, 2024)
# Read-outs that look alike come from different tables or passages of the source.
# Experiments:
# [1] = molecular target: C. elegans (N2) complex I (NADH:ubiquinone oxidoreductase) (Caenorhabditis elegans, UniProt P24887+Q93873+Q94360); experiment: biochemical; type: biochemical; details: for activity at 0.0001 µM / activity at 0.0005 µM / activity at 0.001 µM / activity at 0.0025 µM / activity at 0.005 µM / activity at 0.013 µM / activity at 0.025 µM / activity at 0.063 µM / activity at 0.125 µM / activity at 0.313 µM / activity at 0.625 µM / activity at 1.5 µM / activity at 3 µM / activity at 15 µM / activity at 37.5 µM / activity at 75 µM: read-out: C. elegans mitochondrial complex I activity; for Log IC50 C. elegans complex I: log10 of IC50 in µM, C. elegans mitochondria
# Chain of C. elegans (N2) complex I (NADH:ubiquinone oxidoreductase) (Q94360 17-199): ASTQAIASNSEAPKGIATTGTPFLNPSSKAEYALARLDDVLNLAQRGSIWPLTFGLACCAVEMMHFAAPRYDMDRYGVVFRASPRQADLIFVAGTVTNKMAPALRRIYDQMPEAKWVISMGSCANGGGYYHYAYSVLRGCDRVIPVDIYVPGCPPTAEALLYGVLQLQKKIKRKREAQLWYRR
# Chain of C. elegans (N2) complex I (NADH:ubiquinone oxidoreductase) (P24887 whole entry): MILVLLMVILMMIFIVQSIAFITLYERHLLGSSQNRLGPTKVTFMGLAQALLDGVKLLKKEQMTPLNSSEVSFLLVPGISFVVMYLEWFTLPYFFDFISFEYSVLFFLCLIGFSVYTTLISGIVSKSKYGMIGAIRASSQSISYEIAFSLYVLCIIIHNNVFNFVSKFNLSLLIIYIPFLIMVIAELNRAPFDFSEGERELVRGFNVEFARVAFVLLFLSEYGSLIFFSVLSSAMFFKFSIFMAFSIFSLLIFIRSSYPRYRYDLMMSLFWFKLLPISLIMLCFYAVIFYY
# Chain of C. elegans (N2) complex I (NADH:ubiquinone oxidoreductase) (Q93873 31-482): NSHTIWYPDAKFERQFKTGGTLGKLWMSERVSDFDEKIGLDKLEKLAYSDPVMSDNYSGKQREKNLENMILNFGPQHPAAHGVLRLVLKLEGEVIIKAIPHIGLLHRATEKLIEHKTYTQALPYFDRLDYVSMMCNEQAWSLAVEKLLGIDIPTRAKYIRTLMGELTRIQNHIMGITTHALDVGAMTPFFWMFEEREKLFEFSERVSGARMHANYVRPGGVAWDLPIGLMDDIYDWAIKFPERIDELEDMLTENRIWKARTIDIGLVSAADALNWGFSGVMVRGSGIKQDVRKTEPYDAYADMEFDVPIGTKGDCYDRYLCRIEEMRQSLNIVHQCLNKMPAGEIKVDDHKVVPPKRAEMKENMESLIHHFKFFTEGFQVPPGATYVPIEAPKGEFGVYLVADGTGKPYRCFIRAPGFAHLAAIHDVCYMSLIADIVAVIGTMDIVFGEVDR
# Procedure, shortened: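 Mitochondria, 0.2 mg/mL protein, freeze-thawed three times, assayed in 25 mM KPi pH 7.5 with BSA, 80 μM NADH, 60 μM decylubiquinone, 160 μM DCIP, antimycin A and KCN. Rate from initial linear slope of A600 over 15 min. % of solvent control.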
# L1 wild-type C. elegans [2] = experiment: microbe, parasite or virus in culture; details: Caenorhabditis elegans, read-out: C. elegans KCN Survival Assay LC50, estimated from fitted dose-response curves; mean of at least two biological replicates
# L1 wild-type C. elegans [3] = system: L1 wild-type C. elegans
# [4] = in vitro complex I dose response on C. elegans mitochondria, average of at least two biological replicates, fit in R (DRC), read-out: IC50 C. elegans complex I
# [5] = wild-type C. elegans mitochondria, estimated from fitted dose-response curves, read-out: C. elegans Complex I IC50
# [6] = 50 μM, hit = relative motility below 0.25 3 hours after removal of KCN
# [7] = Dose 0.2 µM, mean of at least three biological replicates
# [8] = wild-type (N2) mitochondria, read-out: C. elegans Complex I IC50
# [9] = 50 μM, KCN survival assay, hit = relative motility below 0.25
# [10] = wild-type C. elegans mitochondria, read-out: C. elegans Complex I IC50
Compound,activity at 0.0001 µM [1] [%],activity at 0.0005 µM [1] [%],activity at 0.001 µM [1] [%],activity at 0.0025 µM [1] [%],activity at 0.005 µM [1] [%],activity at 0.013 µM [1] [%],activity at 0.025 µM [1] [%],activity at 0.063 µM [1] [%],activity at 0.125 µM [1] [%],activity at 0.313 µM [1] [%],activity at 0.625 µM [1] [%],activity at 1.5 µM [1] [%],activity at 3 µM [1] [%],activity at 15 µM [1] [%],activity at 37.5 µM [1] [%],activity at 75 µM [1] [%],"IC50 [1, 4] [µM]",Log IC50 C. elegans complex I [1] [µM],"IC50 [1, 5] [µM]",LC50 (L1 wild-type C. elegans [2]) [µM],also measured
Cc1ccc(SCCCn2cnc3ccccc32)cc1 [Compound 7926035],90.2,95.5,88.3,100,101,96.9,95.3,85.5,96.1,69.9,33.2,33.2,8.58,3.26,1.04,3.35,0.54,-0.27,0.54,4.71,"Screen ""Hit"" (L1 wild-type C. elegans [3]; [6]): Y (hits were identified as compounds that reduced relative motility below 0.25 (75% reduction)); C. elegans KCN Survival (L1 wild-type C. elegans [3]; [7]): 0.990; C. elegans KCN Survival (L1 wild-type C. elegans [3]; Dose 0.39 µM): 0.961; C. elegans KCN Survival (L1 wild-type C. elegans [3]; Dose 1.56 µM): 0.929; C. elegans KCN Survival (L1 wild-type C. elegans [3]; Dose 3.13 µM): 0.707; C. elegans KCN Survival (L1 wild-type C. elegans [3]; Dose 6.25 µM): 0.388; C. elegans KCN Survival (L1 wild-type C. elegans [3]; Dose 12.5 µM): 0.123; C. elegans KCN Survival (L1 wild-type C. elegans [3]; Dose 25 µM): 0.118; C. elegans KCN Survival (L1 wild-type C. elegans [3]; Dose 50 µM): 0.139; C. elegans KCN Survival (L1 wild-type C. elegans [3]; Dose 100 µM): 0.184"
Clc1ccc(Cn2cnc3ccccc32)c(Cl)c1 [Compound 6750659],89.4,104,101,110,103,98.1,98.4,84.8,79.5,62.1,45.6,24.9,16.1,4.66,3.82,5.12,0.45,-0.35,0.45,4.28,"IC50 [1, 8]: 0.45 µM; Screen ""Hit"" (L1 wild-type C. elegans [3]; [9]): Y (hits were identified as compounds that reduced relative motility below 0.25 (75% reduction)); C. elegans KCN Survival (L1 wild-type C. elegans [3]; [7]): 0.888; C. elegans KCN Survival (L1 wild-type C. elegans [3]; Dose 0.39 µM): 0.896; C. elegans KCN Survival (L1 wild-type C. elegans [3]; Dose 1.56 µM): 0.908; C. elegans KCN Survival (L1 wild-type C. elegans [3]; Dose 3.13 µM): 0.544; C. elegans KCN Survival (L1 wild-type C. elegans [3]; Dose 6.25 µM): 0.267; C. elegans KCN Survival (L1 wild-type C. elegans [3]; Dose 12.5 µM): 0.023; C. elegans KCN Survival (L1 wild-type C. elegans [3]; Dose 25 µM): 0.000; C. elegans KCN Survival (L1 wild-type C. elegans [3]; Dose 50 µM): 0.000; C. elegans KCN Survival (L1 wild-type C. elegans [3]; Dose 100 µM): 0.000"
Cc1ccc(OCCn2cnc3ccccc32)cc1 [Compound 5671538],97.2,96.5,95.3,106,90.9,104,98,92.5,91.2,90,88.7,79.2,75,18.9,23.9,13.8,5.33,0.73,,28.3,"IC50 [1, 10]: 5.33 µM; Screen ""Hit"" (L1 wild-type C. elegans [3]; [6]): Y (hits were identified as compounds that reduced relative motility below 0.25 (75% reduction)); C. elegans KCN Survival (L1 wild-type C. elegans [3]; [7]): 0.927; C. elegans KCN Survival (L1 wild-type C. elegans [3]; Dose 0.39 µM): 0.931; C. elegans KCN Survival (L1 wild-type C. elegans [3]; Dose 1.56 µM): 0.891; C. elegans KCN Survival (L1 wild-type C. elegans [3]; Dose 3.13 µM): 0.844; C. elegans KCN Survival (L1 wild-type C. elegans [3]; Dose 6.25 µM): 0.828; C. elegans KCN Survival (L1 wild-type C. elegans [3]; Dose 12.5 µM): 0.784; C. elegans KCN Survival (L1 wild-type C. elegans [3]; Dose 25 µM): 0.550; C. elegans KCN Survival (L1 wild-type C. elegans [3]; Dose 50 µM): 0.033; C. elegans KCN Survival (L1 wild-type C. elegans [3]; Dose 100 µM): 0.00256"
Cc1ccc(SCCCCn2cnc3ccccc32)cc1 [Compound 7925333],91.6,94.2,101,95.1,100,91.2,93.7,96.6,81,64.2,65.6,44,28.6,10.5,5.81,7.08,1.04,0.017,1.04,7.76,"IC50 [1, 8]: 1.04 µM; Screen ""Hit"" (L1 wild-type C. elegans [3]; [9]): Y (hits were identified as compounds that reduced relative motility below 0.25 (75% reduction)); C. elegans KCN Survival (L1 wild-type C. elegans [3]; [7]): 0.989; C. elegans KCN Survival (L1 wild-type C. elegans [3]; Dose 0.39 µM): 1.001; C. elegans KCN Survival (L1 wild-type C. elegans [3]; Dose 1.56 µM): 0.933; C. elegans KCN Survival (L1 wild-type C. elegans [3]; Dose 3.13 µM): 0.876; C. elegans KCN Survival (L1 wild-type C. elegans [3]; Dose 6.25 µM): 0.745; C. elegans KCN Survival (L1 wild-type C. elegans [3]; Dose 12.5 µM): 0.174; C. elegans KCN Survival (L1 wild-type C. elegans [3]; Dose 25 µM): 0.119; C. elegans KCN Survival (L1 wild-type C. elegans [3]; Dose 50 µM): 0.151; C. elegans KCN Survival (L1 wild-type C. elegans [3]; Dose 100 µM): 0.185"
c1ccc(CCCCCCCCCCc2nc3ccccc3[nH]2)cc1 [STL442376],,,,,,,,,,,,,,,,,2.33,0.37,2.33,5.61,"Screen ""Hit"" (L1 wild-type C. elegans [3]; 50 μM compound, hit = relative motility below 0.25 3 hours after removal of KCN): Y (hits were identified as compounds that reduced relative motility below 0.25 (75% reduction))"
Cc1nc2ccccc2n1Cc1ccccc1Cl [Compound 6707368],,,,,,,,,,,,,,,,,0.56,-0.25,0.56,8.24,"IC50 [1, 8]: 0.56 µM; Screen ""Hit"" (L1 wild-type C. elegans [3]; [9]): Y (hits were identified as compounds that reduced relative motility below 0.25 (75% reduction))"
CC(C)Oc1cccc(OCCn2cnc3ccccc32)c1 [Compound 7926496],80,92.9,87.5,88.5,89.3,88.3,81.7,79.5,81.6,76.9,83.9,76.4,65,17.8,0.13,0,6.2,0.79,,23,"IC50 [1, 10]: 6.2 µM; Screen ""Hit"" (L1 wild-type C. elegans [3]; [6]): Y (hits were identified as compounds that reduced relative motility below 0.25 (75% reduction)); C. elegans KCN Survival (L1 wild-type C. elegans [3]; [7]): 1.017; C. elegans KCN Survival (L1 wild-type C. elegans [3]; Dose 0.39 µM): 1.017; C. elegans KCN Survival (L1 wild-type C. elegans [3]; Dose 1.56 µM): 1.072; C. elegans KCN Survival (L1 wild-type C. elegans [3]; Dose 3.13 µM): 1.070; C. elegans KCN Survival (L1 wild-type C. elegans [3]; Dose 6.25 µM): 1.047; C. elegans KCN Survival (L1 wild-type C. elegans [3]; Dose 12.5 µM): 0.937; C. elegans KCN Survival (L1 wild-type C. elegans [3]; Dose 25 µM): 0.437; C. elegans KCN Survival (L1 wild-type C. elegans [3]; Dose 50 µM): 0.153; C. elegans KCN Survival (L1 wild-type C. elegans [3]; Dose 100 µM): 0.199"
Cc1ccccc1OCCCn1c(C)nc2ccccc21 [Compound 7916923],94.5,93.6,94.8,99.1,96.8,102,94.3,89.3,86.3,78.5,65.6,42.6,27.6,7.28,4.39,4.47,1.17,0.07,1.17,12.1,"Screen ""Hit"" (L1 wild-type C. elegans [3]; [6]): Y (hits were identified as compounds that reduced relative motility below 0.25 (75% reduction)); C. elegans KCN Survival (L1 wild-type C. elegans [3]; [7]): 0.930; C. elegans KCN Survival (L1 wild-type C. elegans [3]; Dose 0.39 µM): 1.083; C. elegans KCN Survival (L1 wild-type C. elegans [3]; Dose 1.56 µM): 1.052; C. elegans KCN Survival (L1 wild-type C. elegans [3]; Dose 3.13 µM): 0.985; C. elegans KCN Survival (L1 wild-type C. elegans [3]; Dose 6.25 µM): 0.888; C. elegans KCN Survival (L1 wild-type C. elegans [3]; Dose 12.5 µM): 0.491; C. elegans KCN Survival (L1 wild-type C. elegans [3]; Dose 25 µM): 0.124; C. elegans KCN Survival (L1 wild-type C. elegans [3]; Dose 50 µM): 0.136; C. elegans KCN Survival (L1 wild-type C. elegans [3]; Dose 100 µM): 0.168"
